The target in the assay is Glucose-6-phosphate 1-dehydrogenase (Homo sapiens, UniProt P11413). Nature of the assay: Inhibition of human recombinant N-terminal His tagged G6PD expressed in Escherichia coli JM109 (DE3) cells assessed as production of NADPH after 30 mins by Amplite fluorimetric assay.
Glucose-6-phosphate 1-dehydrogenase, sequence (P11413 whole entry): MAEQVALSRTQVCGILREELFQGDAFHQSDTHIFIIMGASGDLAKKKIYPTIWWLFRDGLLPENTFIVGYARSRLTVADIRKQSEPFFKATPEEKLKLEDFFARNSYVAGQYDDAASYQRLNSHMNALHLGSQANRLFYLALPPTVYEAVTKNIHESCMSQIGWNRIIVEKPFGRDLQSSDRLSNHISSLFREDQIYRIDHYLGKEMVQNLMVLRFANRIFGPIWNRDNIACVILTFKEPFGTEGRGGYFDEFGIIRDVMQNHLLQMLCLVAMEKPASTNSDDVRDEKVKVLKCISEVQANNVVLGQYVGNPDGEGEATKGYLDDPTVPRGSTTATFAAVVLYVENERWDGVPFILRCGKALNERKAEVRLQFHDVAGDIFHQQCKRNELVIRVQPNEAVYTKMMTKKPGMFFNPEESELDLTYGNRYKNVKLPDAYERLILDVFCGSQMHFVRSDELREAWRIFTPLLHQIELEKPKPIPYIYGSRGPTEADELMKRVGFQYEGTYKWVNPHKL

Broadly, the IC50 is the concentration needed to halve the response being measured. As for `C[C@]12CC[C@H](O)C[C@@H]1CC[C@@H]1[C@@H]2CC[C@]2(C)C(N=O)CC[C@@H]12` (some centres not stated), the IC50 was over 200 µM.

`CC(N=O)[C@H]1CC[C@H]2[C@@H]3CC[C@H]4C[C@@H](O)CC[C@]4(C)[C@H]3CC[C@]12C` (some centres not stated): the half-inhibitory concentration (IC50) is over 200 µM.

Values taken from BindingDB's records for doi:10.1021/jm300317k (University of Manchester, 2012).
